Inhibition data for 16 molecules are collected here from patent US20170008888A1 (KYORIN PHARMACEUTICAL CO., LTD., priority 2014, published 2017).

The target in the experiment is T1, TAO2 (Homo sapiens, UniProt Q9UL54).
T1 construct: screened for activity against several kinases in Jurkat cells; endogenous in cells; host or cells: Jurkat cell lysate
T1 sequence (Q9UL54 1-1235): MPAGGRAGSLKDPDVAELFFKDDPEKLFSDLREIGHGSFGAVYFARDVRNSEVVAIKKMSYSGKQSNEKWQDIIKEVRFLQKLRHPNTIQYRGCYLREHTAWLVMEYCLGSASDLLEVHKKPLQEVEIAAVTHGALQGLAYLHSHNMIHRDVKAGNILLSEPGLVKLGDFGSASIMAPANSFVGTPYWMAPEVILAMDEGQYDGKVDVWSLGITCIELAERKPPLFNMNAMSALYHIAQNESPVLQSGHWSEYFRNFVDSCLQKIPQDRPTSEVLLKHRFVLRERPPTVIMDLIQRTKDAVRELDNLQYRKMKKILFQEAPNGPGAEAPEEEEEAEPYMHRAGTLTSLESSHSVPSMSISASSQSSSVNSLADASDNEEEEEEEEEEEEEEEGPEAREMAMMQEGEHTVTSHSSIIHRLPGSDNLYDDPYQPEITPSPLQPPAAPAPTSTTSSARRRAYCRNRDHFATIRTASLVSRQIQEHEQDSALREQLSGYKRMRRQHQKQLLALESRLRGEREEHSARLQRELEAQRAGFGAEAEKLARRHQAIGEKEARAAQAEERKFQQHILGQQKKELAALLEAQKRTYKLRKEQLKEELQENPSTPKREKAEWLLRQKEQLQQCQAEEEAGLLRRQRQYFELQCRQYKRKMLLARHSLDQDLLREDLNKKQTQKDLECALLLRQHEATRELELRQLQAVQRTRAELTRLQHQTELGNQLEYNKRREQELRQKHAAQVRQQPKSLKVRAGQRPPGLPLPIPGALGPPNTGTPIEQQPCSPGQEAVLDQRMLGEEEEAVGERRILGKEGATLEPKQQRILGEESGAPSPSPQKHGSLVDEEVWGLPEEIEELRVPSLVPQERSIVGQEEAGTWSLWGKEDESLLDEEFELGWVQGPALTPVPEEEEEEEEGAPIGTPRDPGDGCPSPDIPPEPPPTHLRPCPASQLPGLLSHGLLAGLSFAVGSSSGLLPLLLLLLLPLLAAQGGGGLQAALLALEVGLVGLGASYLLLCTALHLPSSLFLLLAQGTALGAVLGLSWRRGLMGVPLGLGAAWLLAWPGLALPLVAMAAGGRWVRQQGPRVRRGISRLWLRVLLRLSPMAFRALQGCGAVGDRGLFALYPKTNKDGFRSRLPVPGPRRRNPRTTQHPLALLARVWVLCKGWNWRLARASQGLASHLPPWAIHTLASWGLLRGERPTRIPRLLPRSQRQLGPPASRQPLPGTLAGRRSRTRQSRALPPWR
The experiment is described as follows: Probe-based (AX9989) kinase profiling in Jurkat lysate: TAO2. Conditions: read-out: Kinase inhibition % at indicated screening concentration: TAO2; for inhibition at 1 µM: screening concentration 1.0 μM; for inhibition at 0.1 µM: screening concentration 0.1 μM. Format: binding. Put shortly:
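Percent inhibition was derived from reduced LC/MS fragment intensities of probe-labeled peptides relative to compound-free controls. Before labeling with 5 μM AX9989, Mn2+-supplemented (20 mM) Jurkat lysate was exposed to compound for 15 min at room temperature.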

As to `CCOc1cc(C(=O)N2CCCCC2)ccc1Nc1cc2c(cn1)N(C)C(=O)c1ccccc1N2C` [Compound 12], the inhibition at 1 µM is no more than 35%.

With `CCOc1cc(C(=O)N2CCC(N3CCCC3)C2)ccc1Nc1cc2c(cn1)N(C)C(=O)c1occc1N2C` (stereo not shown) [Compound 15], the inhibition at 0.1 µM was no more than 35%.

In the case of `CCOc1cc(C(=O)N2CC[C@H](O)C2)ccc1Nc1cc2c(cn1)N(C)C(=O)c1occc1N2C` [Compound 17], the inhibition at 0.1 µM is no more than 35%.

As for `C=CCN1CCN(C(=O)c2ccc(Nc3cc4c(cn3)N(C)C(=O)c3ccccc3N4C)c(OCC)c2)CC1` [Compound 21], the inhibition at 0.1 µM is no more than 35%.

As to `CCOc1cc(C(=O)N2CC[C@@H](N3CCCC3)C2)ccc1Nc1cc2c(cn1)N(C)C(=O)c1ccccc1N2C` [Compound 24], the inhibition at 0.1 µM was no more than 35%.

With `CCOc1cc(C(=O)N2CC[C@@H](N(C)C)C2)ccc1Nc1cc2c(cn1)N(C)C(=O)c1occc1N2C` [Compound 25], the inhibition at 0.1 µM is no more than 35%.

On to `CCOc1cc(C(=O)N(C)CCN2CCCC2)ccc1Nc1cc2c(cn1)N(C)C(=O)c1ccccc1N2C` [Compound 28], for which the inhibition at 0.1 µM is no more than 35%.

Regarding `CCOc1cc(C(=O)N(C)CCn2ccnc2)ccc1Nc1cc2c(cn1)N(C)C(=O)c1ccccc1N2C` [Compound 30], the inhibition at 0.1 µM was no more than 35%.

In the case of `CCOc1cc(C(=O)N2CCNC[C@@H]2C)ccc1Nc1cc2c(cn1)N(C)C(=O)c1ccccc1N2C` [Compound 31], the inhibition at 0.1 µM was no more than 35%.

For the molecule `CCOc1cc(C(=O)N2CCN(CCO)CC2)ccc1Nc1cc2c(cn1)N(C)C(=O)c1ccccc1N2C` [Compound 37], the inhibition at 0.1 µM was no more than 35%.

In the case of `CCOc1cc(C(=O)N2CCN(C3CC3)CC2)ccc1Nc1cc2c(cn1)N(C)C(=O)c1ccccc1N2C` [Compound 39], the inhibition at 0.1 µM is no more than 35%.

Regarding `CCOc1cc(C(=O)N2CCC(N3CCN(C)CC3)CC2)ccc1Nc1cc2c(cn1)N(C)C(=O)c1ncccc1N2C` [Compound 40], the inhibition at 1 µM is no more than 35%.

As to `CCOc1cc(C(=O)N(C)CCN(CC)CC)ccc1Nc1cc2c(cn1)N(C)C(=O)c1ccccc1N2C` [Compound 42], the inhibition at 1 µM is no more than 35%.

`CCOc1cc(C(=O)N2CCC(NC)C2)ccc1Nc1cc2c(cn1)N(C)C(=O)c1occc1N2C` (stereo not shown) [Compound 43]: the inhibition at 0.1 µM was no more than 35%.

For the molecule `CCOc1cc(C(=O)NCCN2CCN(C)CC2)ccc1Nc1cc2c(cn1)N(C)C(=O)c1ccccc1N2C` [Compound 44], the inhibition at 1 µM is no more than 35%.

As to `CN1C(=O)c2ccccc2N(C)c2cc(N[C@H]3CC[C@H](NC4=NCCO4)CC3)ncc21` [Compound 45], the inhibition at 1 µM is no more than 35%.
